IC50 and EC50 data for 22 compounds are collected here from patent US12071424B2, “IRE1 small molecule inhibitors” (Cornell University, priority 2017, dated 2024).

The target in experiment [1] is T1, IRE1a (Homo sapiens, UniProt O75460).
T1 construct: purchased SignalChem
Description: In vitro FRET assay (IRE1a cleavage of XBP1 RNA probe). The experiment is classed as biochemical. Particulars: 2 nM SignalChem IRE1a, tested as Formic Acid Salt (37: HCl Salt). On the procedure: In vitro FRET assay was performed to evaluate the ability of select compounds to inhibit IRE1, the results of which are summarized in Table 3. To perform the in vitro FRET assay, 1× complete assay buffer (CAB: […], 50 mM sodium citrate pH 7.15, 1 mM magnesium acetate, 0.02% tween 20) was used to SignalChem IRE1a protein to a final concentration of 2 nM. Selected compounds were serially diluted with DMSO in a non-binding black 384-well plate for a total of 15 ul in each well. 2 ul of the serially diluted compound or DMSO control were then added to new wells containing 98 ul of 1× CAB, for a total volume of 100 ul, 10 ul of which were then transferred to wells of a new plate. 5 ul of the diluted IRE1a was then added to each well. 5 ul of a […] XBP1 RNA probe was then added to each well. Fluorescence was then read over 30 minutes in kinetic mode (485/515 nm).
Two RNA probes were used, XBP1 wildtype (SEQ ID NO: 2) which is able to be spliced by active IRE1a or XBP1 mutant (SEQ ID NO: 3) which is unable to be spliced. Each probe contained a 5′ 6-FAM modification and a 3′ IOWA black FQ modification. […]

The subject of experiment [2] is IRE1a. Description: IRE1a Endoribonuclease Nanoluciferase Assay (XBP1 luciferase reporter in 293T cells). The following applies: ER stressor, tested as Formic Acid Salt (37: HCl Salt). The experiment is classed as cell-based, human. The procedure:
Compounds disclosed herein assessed for disruption of IRE1 signaling using a IRE1a Endoribonuclease Nanoluciferase Assay. Briefly, 25×10^5 293T cells were seeded in a 10 cm^2 tissue culture plate. About 24 hours later, the cells were transfected with Effectene. In a 15 mL tube, the following was added: 2 ug XBP1 luciferase reporter plasmid (PGK-Luc2-P2A-XBP1u-Nanoluciferase-Pest); 300 ul EC buffer; and 16 ul Enhancer, followed by incubation at room temp for 5 minutes. Next, 60 ul Effectene (Qiagen 301427) was added, followed by incubation at room temperature for 10 minutes. 2.6 mL cDMEM media was added. Old media was aspirated from the cells, followed by addition of 7 mL fresh media. Full transfection mixture was added dropwise to cells. Cells were incubated for 6 hours, followed by trypsinization, centrifugation and resuspension in 11 mL fresh cDMEM media. 100 uL of cells were plated per a well in a 96 well plate. A day later, ER stressors of choice +/−inhibitors were added. To harvest, media was aspirated from cells completely, then 50 uL 1× passive lysis buffer (Promega: E1941) was added per well and put on shaker (300 rpm) for 30 minutes at room temperature. Cells were centrifuged, and 15 uL sample per well was added to a new, opaque white 384 well plate (Corning 3570). 15 uL OneGlo (nanoluciferase kit, Promega N1630) was added. Plates were spun down, placed on shaker (300 rpm) for 10 minutes. Plates were read on luminometer, 1000 ms integration time per well. 15 uL Stop an Glo (nanoluciferase kit) was added. Plates were spun down, placed on shaker (300 rpm) for 10 minutes. Plates were read on luminometer, 1000 ms second integration time per well. Recordings are provided below in Table 4.
For orientation: Reporter assays use an easily measured gene product as a stand-in for the process of interest.

Where only a bound is given, the exact number is not on record here.

T1 sequence (O75460 19-977): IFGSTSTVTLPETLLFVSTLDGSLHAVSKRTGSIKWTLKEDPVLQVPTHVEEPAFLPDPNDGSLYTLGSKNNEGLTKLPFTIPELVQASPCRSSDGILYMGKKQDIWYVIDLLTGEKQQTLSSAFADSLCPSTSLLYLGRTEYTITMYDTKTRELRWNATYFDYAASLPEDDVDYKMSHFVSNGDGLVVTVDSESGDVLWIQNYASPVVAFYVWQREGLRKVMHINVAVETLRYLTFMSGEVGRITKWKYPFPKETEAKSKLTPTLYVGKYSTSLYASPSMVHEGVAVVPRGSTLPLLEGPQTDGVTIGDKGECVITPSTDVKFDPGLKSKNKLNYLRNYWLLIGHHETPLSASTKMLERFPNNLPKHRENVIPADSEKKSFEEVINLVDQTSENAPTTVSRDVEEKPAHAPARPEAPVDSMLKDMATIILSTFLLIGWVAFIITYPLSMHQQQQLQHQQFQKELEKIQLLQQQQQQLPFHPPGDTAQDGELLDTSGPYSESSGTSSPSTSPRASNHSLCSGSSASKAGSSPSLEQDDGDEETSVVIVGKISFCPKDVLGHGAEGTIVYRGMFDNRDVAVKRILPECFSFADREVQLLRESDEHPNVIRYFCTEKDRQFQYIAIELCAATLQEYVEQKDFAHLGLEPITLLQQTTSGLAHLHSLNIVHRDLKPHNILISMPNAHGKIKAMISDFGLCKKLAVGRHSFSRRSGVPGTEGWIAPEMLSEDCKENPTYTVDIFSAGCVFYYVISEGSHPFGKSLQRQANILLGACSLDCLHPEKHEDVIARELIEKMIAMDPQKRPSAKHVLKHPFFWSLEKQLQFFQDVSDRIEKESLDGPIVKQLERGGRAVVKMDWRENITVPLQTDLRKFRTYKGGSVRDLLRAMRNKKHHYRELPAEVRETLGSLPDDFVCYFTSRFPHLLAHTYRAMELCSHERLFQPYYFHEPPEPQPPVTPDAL

In the case of `N[C@H]1CC[C@H](Nc2cc3ccc(-c4ccc(NS(=O)(=O)c5ccccc5Cl)c(F)c4)cc3cn2)CC1` [Compound 57, N-(4-(3-(((1r,4r)-4-aminocyclohexyl)amino)isoquinolin-7-yl)-2-fluorophenyl)-2-chlorobenzene-sulfonamide], the IC50 at IRE1a [1] was at most 5 nM. Further, the EC50 with IRE1a [2] (Homo sapiens, HEK-293T) is at most 5 nM.

On to `CCc1cc(-c2ccc(NS(=O)(=O)c3ccccc3Cl)c(F)c2)cc2cnc(N[C@H]3CC[C@H](NC(C)=O)CC3)nc12` [Compound 59], for which the IC50 on IRE1a [1] fell in the range of 5 to 50 nM. Besides, the EC50 with IRE1a [2] (Homo sapiens, HEK-293T) fell in the range of 50 to 100 nM.

For the compound `CCc1cc(-c2ccc(NS(=O)(=O)c3ccccc3Cl)c(F)c2)cc2cnc(N[C@H]3CC[C@H](NC)CC3)nc12` [Compound 60, 2-chloro-N-(4-(8-ethyl-2-(((1r,4r)-4-(methylamino)cyclohexyl)amino)quinazolin-6-yl)-2-fluorophenyl) benzene sulfonamide], on IRE1a [1], the IC50 was at most 5 nM. For the same compound, the EC50 in the experiment on IRE1a [2] (Homo sapiens, HEK-293T) was at most 5 nM.

In the case of `CCc1cc(-c2ccc(NS(=O)(=O)c3ccccc3Cl)nn2)cc2cnc(N[C@H]3CC[C@H](NC)CC3)nc12` [Compound 61, 2-chloro-N-(6-(8-ethyl-2-(((1r,4r)-4-(methylamino)cyclohexyl)amino)quinazolin-6-yl)pyridazin-3-yl)benzene-sulfonamide], the IC50 on IRE1a [1] was at most 5 nM. Moreover, the EC50 in the experiment on IRE1a [2] (Homo sapiens, HEK-293T) was at most 5 nM.

Regarding `N[C@H]1CC[C@H](Nc2ncc3cc(-c4c(F)cc(NS(=O)(=O)c5ccccc5Cl)cc4F)ccc3n2)CC1` [Compound 62, N-(4-(2-(((1r,4r)-4-aminocyclohexyl)amino)quinazolin-6-yl)-3,5-difluorophenyl)-chlorobenzene-sulfonamide], the concentration for half-maximal inhibition (IC50) on IRE1a [1] is at most 5 nM. The EC50 with IRE1a [2] (Homo sapiens, HEK-293T) lay in the range of 5 to 50 nM.

Regarding `CCc1cc(-c2ccc(NS(=O)(=O)c3ccccc3Cl)nn2)cc2cnc(N[C@H]3CC[C@H](N(C)C)CC3)nc12` [Compound 64], at IRE1a [1], the IC50 is at most 5 nM. Further, in the experiment with IRE1a [2] (Homo sapiens, HEK-293T), the EC50 is at most 5 nM.

With `CCc1cc(-c2cc(OC)c(NS(=O)(=O)c3ccccc3Cl)nn2)cc2cnc(N[C@H]3CC[C@H](N)CC3)nc12` [Compound 66, N-(6-(2-(((1r,4r)-4-aminocyclohexyl)amino)-8-ethylquinazolin-6-yl)-4-methoxypyridazin-3-yl)-2-chlorobenzene-sulfonamide], the 50% inhibitory concentration (IC50) at IRE1a [1] is at most 5 nM. The EC50 with IRE1a [2] (Homo sapiens, HEK-293T) lay within 50 to 100 nM.

With `Cc1nc(NS(=O)(=O)c2ccccc2Cl)ncc1-c1ccc2nc(N[C@H]3CC[C@H](N)CC3)ncc2c1` [Compound 68, N-(5-(2-(((1r,4r)-4-aminocyclohexyl)amino)quinazolin-6-yl)-4-methylpyrimidin-2-yl)-2-chlorobenzene-sulfonamide], the IC50 on IRE1a [1] was at most 5 nM. In addition, the half-maximal effective concentration (EC50) in the experiment on IRE1a [2] (Homo sapiens, HEK-293T) was 50 to 100 nM.

As for `CCc1cc(-c2ccc(NS(=O)(=O)c3ccccc3Cl)c(F)c2)cc2cnc(N[C@@H]3CCC[C@H](N)C3)nc12` [Compound 72, N-(4-(2-(((1R,3S)-3-aminocyclohexyl)amino)-8-ethylquinazolin-6-yl)-2-fluorophenyl)-2-chlorobenzene-sulfonamide], the concentration for half-maximal inhibition (IC50) on IRE1a [1] is at most 5 nM. Further, the EC50 in the experiment on IRE1a [2] (Homo sapiens, HEK-293T) lay within 100 to 10000 nM.

Turning to `CCc1cc(-c2ccc(NS(=O)(=O)c3ccccc3Cl)c(F)c2)cc2cnc(N[C@@H]3CC[C@@H](N)[C@H](C)C3)nc12` [Compound 74, N-(4-(2-(((1R,3R,4R)-4-amino-3-methylcyclohexyl)amino)-8-ethylquinazolin-6-yl)-2-fluorophenyl)-2-chlorobenzene-sulfonamide], at IRE1a [1], the IC50 was at most 5 nM. In the experiment on IRE1a [2] (Homo sapiens, HEK-293T), the EC50 was at most 5 nM.

`N[C@H]1CCC[C@@H](Nc2ncc3cc(-c4ccc(NS(=O)(=O)c5ccccc5Cl)c(F)c4)ccc3n2)C1` [Compound 75, N-(4-(2-(((1R,3S)-3-aminocyclohexyl)amino)quinazolin-6-yl)-2-fluorophenyl)-2-chlorobenzene-sulfonamide]: on IRE1a [1], the IC50 was at most 5 nM. Further, in the experiment with IRE1a [2] (Homo sapiens, HEK-293T), the EC50 is 100 to 10000 nM.

In the case of `O=S(=O)(Nc1ccc(-c2ccc3nc(N[C@H]4CCCNC4)ncc3c2)cc1F)c1ccccc1Cl` [Compound 76, (S)-2-chloro-N-(2-fluoro-4-(2-(piperdin-3-ylamino)quinazolin-6-yl)phenyl) benzenesulfon-amide], at IRE1a [1], the IC50 was at most 5 nM. Also, the half-maximal effective concentration (EC50) in the experiment with IRE1a [2] (Homo sapiens, HEK-293T) lay in the range of 5 to 50 nM.

As for `N[C@@H]1CC[C@@H](Nc2ncc3cc(-c4ccc(NS(=O)(=O)c5ccccc5Cl)c(F)c4)ccc3n2)C1` [Compound 77, N-(4-(2-(((1R,3R)-3-aminocyclopentyl)amino)quinazolin-6-yl)-2-fluorophenyl)-2-chlorobenzene-sulfonamide], at IRE1a [1], the IC50 was at most 5 nM. The EC50 with IRE1a [2] (Homo sapiens, HEK-293T) lay within 5 to 50 nM.

On to `CCc1cc(-c2ccc(NS(=O)(=O)c3ccccc3Cl)c(F)c2)cc2cnc(N[C@@H]3CC[C@@H](N)C3)nc12` [Compound 78, N-(4-(2-(((1R,3R)-3-aminocyclopentyl)amino)-8-ethylquinazolin-6-yl)-2-fluorophenyl)-2-chlorobenzene-sulfonamide], for which, at IRE1a [1], the IC50 is at most 5 nM. Besides, the EC50 with IRE1a [2] (Homo sapiens, HEK-293T) is at most 5 nM.

Turning to `CCc1cc(-c2ccc(NS(=O)(=O)c3ccccc3Cl)c(F)c2)cc2cnc(N[C@@H]3CC[C@H](N)C3)nc12` [Compound 79, N-(4-(2-(((1R,3S)-3-aminocyclopentyl)amino)-8-ethylquinazolin-6-yl)-2-fluorophenyl)-2-chlorobenzene-sulfonamide], at IRE1a [1], the IC50 is at most 5 nM. Further, the concentration for a half-maximal effect (EC50) in the experiment with IRE1a [2] (Homo sapiens, HEK-293T) lay within 5 to 50 nM.

For `NC12CCC(Nc3ncc4cc(-c5ccc(NS(=O)(=O)c6ccccc6Cl)c(F)c5)ccc4n3)(CC1)CC2` [Compound 81, N-(4-(2-((4-aminobicyclo[2.2.2]octan-1-yl)amino)quinazolin-6-yl)-2 fluorophenyl)-2-chlorobenzene-sulfonamide], at IRE1a [1], the IC50 was at most 5 nM. Moreover, the EC50 in the experiment with IRE1a [2] (Homo sapiens, HEK-293T) is at most 5 nM.

On to `CCc1cc(-c2ccc(NS(=O)(=O)c3ccccc3Cl)c(F)c2)cc2cnc(N[C@H]3CC4C[C@H](N)CC4C3)nc12` (some centres unmarked) [Compound 82, N-(4-(2-((4-5-aminooctahydro-pentalen-2-yl)amino)-8-ethylquinazolin-6-yl)-2-fluorophenyl)-2-chlorobenzene-sulfonamide], for which, on IRE1a [1], the 50% inhibitory concentration (IC50) is at most 5 nM. For the same compound, the EC50 with IRE1a [2] was in the range of 5 to 50 nM.

`CCc1cc(-c2ccc(NS(=O)(=O)c3ccccc3Cl)c(F)c2)cc2cnc(N[C@H]3CC4C[C@H](N)CC4C3)nc12` (some centres unmarked) [Compound 83]: the IC50 at IRE1a [1] lay in the range of 5 to 50 nM. Further, the EC50 with IRE1a [2] is 50 to 100 nM.

As for `CCc1cc(-c2ccc(NS(=O)(=O)c3ccccc3Cl)c(F)c2)cc2cnc(N[C@H]3CC4C[C@@H](N)CC4C3)nc12` (some centres unmarked) [Compound 84], the IC50 at IRE1a [1] was at most 5 nM. Further, in the experiment on IRE1a [2] (Homo sapiens, HEK-293T), the EC50 fell in the range of 5 to 50 nM.

In the case of `N[C@H]1CC2C[C@@H](Nc3ncc4cc(-c5ccc(NS(=O)(=O)c6ccccc6Cl)c(F)c5)ccc4n3)CC2C1` (some centres unmarked) [Compound 85, N-(4-(2-(((2s,5s)-5-aminooctahydro-pentalen-2-yl)amino)quinazolin-6-yl)-2-fluorophenyl)-2-chlorobenzene-sulfonamide], the IC50 on IRE1a [1] is at most 5 nM. Besides, in the experiment on IRE1a [2] (Homo sapiens, HEK-293T), the concentration for a half-maximal effect (EC50) lay within 100 to 10000 nM.

With `NC12CCC(Nc3ncc4cc(-c5ccc(NS(=O)(=O)c6ccccc6Cl)c(F)c5)ccc4n3)(CC1)C2` [Compound 86], the IC50 at IRE1a [1] is at most 5 nM. Further, the EC50 in the experiment with IRE1a [2] (Homo sapiens, HEK-293T) was in the range of 50 to 100 nM.

`CCc1cc(-c2ccc(NS(=O)(=O)c3ccccc3Cl)c(F)c2)cc2cnc(NC34CCC(N)(CC3)CC4)nc12` [Compound 87, N-(4-(2-((4-aminobicyclo[2.2.2]octan-1-yl)amino)-8-ethylquinazolin-6-yl)-2-fluorophenyl)-2-chlorobenzene-sulfonamide]: the 50% inhibitory concentration (IC50) at IRE1a [1] was at most 5 nM. Also, in the experiment on IRE1a [2] (Homo sapiens, HEK-293T), the EC50 is at most 5 nM.

Usually IC50 stands for the concentration needed to halve the response being measured. By EC50 is commonly meant the midpoint of the concentration-response curve.
